Data from patent US20100273876A1, “ANTIBACTERIAL FORMULATION COMPRISING A DIALKYL SULPHOSUCCINATE AND A CARBANILIDE ANTIBACTERIAL AGENT” (priority 2007, published 2010).
Values after ≈ are worked out from the molar mass of the structure shown. Where two headings read alike, the source gives them in different places.

Columns and labels:
P. acnes NCTC 737 = assay: Minimum bactericidal concentration (MBC) assay; type: cell-based, Propionibacterium acnes
Protocol: The propionibacteria were cultured and maintained on Wilkins-Chalgren Anaerobe Medium (agar and broth) at pH 6.0; all cultures were incubated anaerobically at 37° C. for 72 hours. This assay, normally carried out after an MIC assay, determines the rnininiurn concentration of a compound that is lethal to the micro-organism being tested. […] These samples were then individually sub-cultured on antibiotic-free agar medium, under the incubation conditions described above. Following incubation they were examined visually for microbial growth.

P. acnes PRP-046 = assay: (S)DDA disc diffusion; type: cell-based, Propionibacterium acnes
Protocol: (§1) The propionibacteria were cultured and maintained on Wilkins-Chalgren Anaerobe Medium (agar and broth) at pH 6.0; all cultures were incubated anaerobically at 37° C. for 72 hours.
(§2) A sterile paper disc was impregnated with a sample of the test compound in a suitable solvent and 30 minutes allowed for the solvents to evaporate (where possible). The disc was then placed on an agar plate onto which the test micro-organism had been inoculated. The plate was then incubated under the conditions described above, following which it was examined visually for signs of microbial growth. If the test compound had antimicrobial activity, a circular zone of no growth would be obtained around the disc. The diameter of this zone of “inhibition” was measured using a ProtoCOL™ automated zone sizer (Synbiosis, Cambridge, UK). In general, a greater diameter and/or area of the zone of inhibition indicates a greater antimicrobial activity in the relevant test compound, although other factors such as test compound mobility through the agar gel may also influence the result.
(§3) Two test a compounds A and B were placed on a single paper disc and the above described DDA procedure repeated. An increase in diameter of the zone of inhibition, compared to the greater of the zone diameters for the two compounds individually, was taken to indicate potential antimicrobial synergy. In practical terms, an increase of greater than 5 mm could be treated as significant.
(§4) Both the DDA and the SDDA test may be carried out using an agar gel supplemented with lipid and/or salt to simulate some of the major components present in human skin and to assess whether these substances might reduce the antimicrobial activity observed for the test compound. Performance under these conditions can provide a more reliable indication of activity on topical application. The supplements used in Examples 1, 11, 12 and 13 below were lipid (either Tween™ 80 at 1% v/v (Example 1) or triolein at 1% v/v (Examples 11, 12 and 13) and sodium chloride (100 mM).

P. acnes PRP-068 = assay: (S)DDA disc diffusion; type: cell-based, Propionibacterium acnes
Protocol: as §1, §2, §3, §4

P. acnes PRP-102 = assay: (S)DDA disc diffusion; type: cell-based, Propionibacterium acnes
Protocol: as §1, §2, §3, §4

P. granulosum NCTC 11865 = assay: (S)DDA disc diffusion; type: cell-based, Propionibacterium granulosum
Protocol: as §1, §2, §3, §4

P. granulosum PRP-019 = assay: (S)DDA disc diffusion; type: cell-based, Propionibacterium granulosum
Protocol: as §1, §2, §3, §4

P. granulosum PRP-055 = assay: (S)DDA disc diffusion; type: cell-based, Propionibacterium granulosum
Protocol: as §1, §2, §3, §4

[1] = test system: C. mucifaciens ATCC 700355; assay: (S)DDA disc diffusion; type: cell-based, Corynebacterium mucifaciens; details: for DDA: 200 μg per disc
Protocol: (§5) Several Corynebacterium test species were also used in this study, namely C. mucifaciens ATCC 700355, C. striatum NCTC 764, C. xerosis NCTC 11861 and C. jeikeium NCTC 11915. These Gram-positive pathogens are closely related to organisms (aerobic diphtheroids of the genus Corynebacterium) that cause body odour. C. mucifaciens and C. striatum were cultured and maintained on Mueller-Hinton Medium (agar and broth) and were incubated aerobically at 37° C. for 24 hours. C. xerosis and C. jeikeium were cultured and maintained on Mueller-Hinton Medium containing 5% (v/v) lysed horse blood (agar and broth) and were incubated aerobically at 37° C. for 72 hours. A sterile paper disc was impregnated with a sample of the test compound in a suitable solvent and 30 minutes allowed for the solvents to evaporate (where possible). The disc was then placed on an agar plate onto which the test micro-organism had been inoculated. The plate was then incubated under the conditions described above, following which it was examined visually for signs of microbial growth. If the test compound had antimicrobial activity, a circular zone of no growth would be obtained around the disc. The diameter of this zone of “inhibition” was measured using a ProtoCOL™ automated zone sizer (Synbiosis, Cambridge, UK). In general, a greater diameter and/or area of the zone of inhibition indicates a greater antimicrobial activity in the relevant test compound, although other factors such as test compound mobility through the agar gel may also influence the result. Two test a compounds A and B were placed on a single paper disc and the above described DDA procedure repeated. An increase in diameter of the zone of inhibition, compared to the greater of the zone diameters for the two compounds individually, was taken to indicate potential antimicrobial synergy. In practical terms, an increase of greater than 5 mm could be treated as significant. The activities of DOSS and TCC were determined, using (S)DDAs, against the test organisms C. mucifaciens ATCC 700355, C. striatum NCTC 764, C. xerosis NCTC 11861 and C. jeikeium NCTC 11915. 200 μg of the DOSS and/or the TCC were loaded onto each disc. All the experiments were conducted in triplicate.

C. jeikeium NCTC 11915 = assay: (S)DDA disc diffusion; type: cell-based, Corynebacterium jeikeium; details: for DDA: 200 μg per disc
Protocol: as §5

B. cereus ATCC 11778 = assay: (S)DDA disc diffusion; type: cell-based, Bacillus cereus; details: 200 μg per disc
Protocol: as §2
Two test a compounds A and B were placed on a single paper disc and the above described DDA procedure repeated. […]
The activities of DOSS and TCC were determined, using (S)DDAs, against a panel of further test micro-organisms, namely B. cereus ATCC 11778, Bact. fragilis ATCC 25285, Clost. difficile […] and E. faecalis ATCC 29212. […]

[2] = P. acnes PRP-046 (resistance None), 200 μg TCC or 50 μg DOSS per disc
[3] = P. acnes PRP-068 (Ery), 200 μg TCC or 50 μg DOSS per disc
[4] = P. acnes PRP-102 (Tet/MLS), 200 μg TCC or 50 μg DOSS per disc
[5] = P. granulosum NCTC 11865 (resistance None), 200 μg TCC or 50 μg DOSS per disc
[6] = P. granulosum PRP-019 (MLSK), 200 μg TCC or 50 μg DOSS per disc
[7] = P. granulosum PRP-055 (resistance None), 200 μg TCC or 50 μg DOSS per disc
[8] = 200 μg DOSS + 200 μg TCC on one disc

Question: How did the MBC (P. acnes NCTC 737) turn out when dioctyl sodium sulphosuccinate [DOSS] was run?
Answer: The MBC was 62.5 µg/mL.

Question: And the MIC/MBC ratio (P. acnes NCTC 737)?
Answer: The MIC/MBC ratio was 0.25.

Question: And the DDA (P. acnes PRP-046; [2])?
Answer: Its DDA is 25.08 mm.

Question: What about the DDA (P. acnes PRP-046; P. acnes PRP-046, 200 μg per disc) of the same compound?
Answer: Its DDA is 44.51 mm.

Question: And the “DDA + salt” value (P. acnes PRP-046; P. acnes PRP-046, 200 μg per disc, sodium chloride 100 mM)?
Answer: The value was 47.00 mm.

Question: And the “DDA + lipid” value (P. acnes PRP-046; P. acnes PRP-046, 200 μg per disc, triolein 1% v/v)?
Answer: The value was 41.09 mm.

Question: What about the DDA (P. acnes PRP-068; [3]) of the same compound?
Answer: The DDA was 25.59 mm.

Question: What about the DDA (P. acnes PRP-068; P. acnes PRP-068, 200 μg per disc) of the same compound?
Answer: Its DDA is 48.87 mm.

Question: And the “DDA + salt” value (P. acnes PRP-068; P. acnes PRP-068, 200 μg per disc, sodium chloride 100 mM)?
Answer: Its value is 46.69 mm.

Question: What about the “DDA + lipid” value (P. acnes PRP-068; P. acnes PRP-068, 200 μg per disc, triolein 1% v/v) of the same compound?
Answer: Its value is 44.51 mm.

Question: And the DDA (P. acnes PRP-102; [4])?
Answer: The DDA was 22.81 mm.

Question: What about the DDA (P. acnes PRP-102; P. acnes PRP-102, 200 μg per disc) of the same compound?
Answer: Its DDA is 44.82 mm.

Question: What about the “DDA + salt” value (P. acnes PRP-102; P. acnes PRP-102, 200 μg per disc, sodium chloride 100 mM) of the same compound?
Answer: The value was 41.71 mm.

Question: And the “DDA + lipid” value (P. acnes PRP-102; P. acnes PRP-102, 200 μg per disc, triolein 1% v/v)?
Answer: Its value is 37.98 mm.

Question: What about the DDA (P. granulosum NCTC 11865; [5]) of the same compound?
Answer: Its DDA is 14.70 mm.

Question: What about the DDA (P. granulosum NCTC 11865; P. granulosum NCTC 11865, 200 μg per disc) of the same compound?
Answer: Its DDA is 39.84 mm.

Question: And the “DDA + salt” value (P. granulosum NCTC 11865; P. granulosum NCTC 11865, 200 μg per disc, sodium chloride 100 mM)?
Answer: The value was 37.98 mm.

Question: And the “DDA + lipid” value (P. granulosum NCTC 11865; P. granulosum NCTC 11865, 200 μg per disc, triolein 1% v/v)?
Answer: The value was 38.60 mm.

Question: What about the DDA (P. granulosum PRP-019; [6]) of the same compound?
Answer: Its DDA is 19.94 mm.

Question: And the DDA (P. granulosum PRP-019; P. granulosum PRP-019, 200 μg per disc)?
Answer: Its DDA is 41.71 mm.

Question: And the “DDA + salt” value (P. granulosum PRP-019; P. granulosum PRP-019, 200 μg per disc, sodium chloride 100 mM)?
Answer: The value was 42.02 mm.

Question: What about the “DDA + lipid” value (P. granulosum PRP-019; P. granulosum PRP-019, 200 μg per disc, triolein 1% v/v) of the same compound?
Answer: The value was 42.65 mm.

Question: What about the DDA (P. granulosum PRP-055; [7]) of the same compound?
Answer: The DDA was 10.07 mm.

Question: What about the DDA (P. granulosum PRP-055; P. granulosum PRP-055, 200 μg per disc) of the same compound?
Answer: The DDA was 40.16 mm.

Question: And the “DDA + salt” value (P. granulosum PRP-055; P. granulosum PRP-055, 200 μg per disc, sodium chloride 100 mM)?
Answer: The value was 38.29 mm.

Question: What about the “DDA + lipid” value (P. granulosum PRP-055; P. granulosum PRP-055, 200 μg per disc, triolein 1% v/v) of the same compound?
Answer: The value was 36.42 mm.

Question: What about the SDDA area increase [1] of the same compound?
Answer: The SDDA area increase was 165.45%.

Question: And the SDDA increase [1]?
Answer: Its SDDA increase is 8.13 mm.

Question: And the “SDDA with TCC” value [1, 8]?
Answer: The value was 21.05 mm.

Question: And the DDA [1]?
Answer: The DDA was 12.92 mm.

Question: What about the SDDA area increase (C. jeikeium NCTC 11915) of the same compound?
Answer: The SDDA area increase was “∞”.

Question: What about the SDDA increase (C. jeikeium NCTC 11915) of the same compound?
Answer: Its SDDA increase is 13.81 mm.

Question: What about the “SDDA with TCC” value (C. jeikeium NCTC 11915; [8]) of the same compound?
Answer: Its value is 13.81 mm.

Question: What about the DDA (C. jeikeium NCTC 11915) of the same compound?
Answer: The DDA was 0.0 mm.

Question: And the DDA (B. cereus ATCC 11778)?
Answer: The DDA was 18.10 mm.

Question: With `O=C(Nc1ccc(Cl)cc1)Nc1ccc(Cl)c(Cl)c1` [TCC, N-(4-chlorophenyl)-N′-(3,4-dichlorophenyl) urea] as the compound, how does the MBC (P. acnes NCTC 737; Cutibacterium acnes, NCTC737, read-out: MBC) read?
Answer: The MBC was 31.2 µg/mL (≈ 99 µM).

Question: And the DDA (P. acnes PRP-046; [2])?
Answer: The DDA was 20.25 mm.

Question: And the DDA (P. acnes PRP-068; [3])?
Answer: Its DDA is 22.30 mm.

Question: What about the DDA (P. acnes PRP-102; [4]) of the same compound?
Answer: Its DDA is 14.59 mm.

Question: And the DDA (P. granulosum NCTC 11865; [5])?
Answer: Its DDA is 17.78 mm.

Question: And the DDA (P. granulosum PRP-019; [6])?
Answer: The DDA was 0.00 mm.

Question: And the DDA (P. granulosum PRP-055; [7])?
Answer: The DDA was 17.16 mm.

Question: What about the DDA [1] of the same compound?
Answer: Its DDA is 9.59 mm.

Question: And the DDA (C. jeikeium NCTC 11915)?
Answer: Its DDA is 0.0 mm.

Question: What about the DDA (B. cereus ATCC 11778) of the same compound?
Answer: The DDA was 12.96 mm.
